ChEMBL document CHEMBL1137559, “Rational design of 5'-thiourea-substituted alpha-thymidine analogues as thymidine monophosphate kinase inhibitors capable of inhibiting mycobacterial growth” (J Med Chem, 2007)
The source made the active and inactive calls. The calls are words filed in the database; no cut-off is given here.

Experiments:
Homo sapiens [1] = species: Homo sapiens; assay: Inhibition of human TMPK expressed in Escherichia coli by spectrophotometric assay
Homo sapiens [2] = species: Homo sapiens; assay: Inhibition of human TMPK expressed in Escherichia coli at 1 mM by spectrophotometric assay

| SMILES | Km (Homo sapiens [1]) | Activity (Homo sapiens [2]) |
| --- | --- | --- |
| Cc1cn([C@H]2C[C@H](O)[C@@H](COP(=O)(O)O)O2)c(=O)[nH]c1=O | 5 µM | – |
| Cc1cn([C@@H]2C[C@@H](CNC(=O)NC[C@H]3C[C@H](n4cc(C)c(=O)[nH]c4=O)O[C@@H]3CO)[C@H](CO)O2)c(=O)[nH]c1=O | – | inactive |
